# From patent US20210077625A1, “RAY TRACING TECHNIQUE FOR WIRELESS CHANNEL MEASUREMENTS” (Cohere Technologies, Inc., priority 2017, published 2021)
# Tests used:
# [1] = system: LM36R human melanoma xenograft; assay: Tumor growth of vemurafenib-resistant LM36R melanoma xenograft in nude mice; type: in vivo, mouse; conditions: nude male mice, 5 mg of drug/kg per injection, bi-weekly tail vein, 4 weeks, n=5 per group; p-value 0.048 at week 4
# Experimental: Vemurafenib-resistant LM36R human melanoma cells were inoculated (5.0×10^5 cells/mouse) into the right flank of athymic Nu/Nu nude male mice (Cr1:NU-Foxn1^nu strain code 088)) n=5 per group, and progression of tumor was recorded using the volume model of length×(width^2)×0.52. Mice were split into four groups consisting of a control (empty HANP), free Tris DBA-Pd, HANP with Tris DBA-Pd, and HANP with Tris DBA-Pd and αIGF1R antibody. Free Tris DBA-Pd was first dissolved in DMSO and then mixed with Kolliphor EL™. At last, the mixture was diluted by H2O before injection at concentration of 1 mg/mL of DBA. The ratio of DMSO, Kolliphor EL™ and H2O was controlled as 1:2:7 (v/v). The treatments were administered through bi-weekly tail vein injections over the course of 4 weeks (5 mg of drug/kg per injection). Tumor samples were analyzed for CD44 (hyaluronate receptor) expression by immunohistochemistry.
# melanoma = conditions: reported in literature; cited from earlier work
# [2] = Dispersion, solubility and stability in water, FBS, cell culture media; type: physicochemical; conditions: for solubility (general statement): water / not specified
# LM36R xenograft tumor = assay: Gene array / microarray RNA analysis of LM36R xenograft tumors; type: in vivo
# Experimental: Gene array was performed on all tumors. […] By varying the delivery process of a single drug, one might be able to prevent resistance.
# RNA Extraction and QC: RNA was extracted using the Qiagen miRNEasy™ kit with on column DNAse treatment. Tissue was lysed and homogenized in Qiazol™ with a rotor-stator probe homogenizer for 40 seconds or until fully disrupted (1 ml Qiazol™ per 100 mg of tissue). RNA was eluted in 50 ul nuclease free water. One microliter was used to determine OD (optical density) values on a Nanodrop 1000. One microliter was used to assess sample profiles on the Agilent 2100 using the RNA 6000 Nano assay. Total RNA (250 ng) was amplified and labeled using the ThermoFisher Scientific Illuina™ TotalPrep™ RNA Amplification kit. Labeled cRNA was hybridized to Illumina HT12™ bead array. Image acquisition and data extraction were performed.
# [3] = biological target: T1, N-myristoyltransferase 1 (NMT1) (Homo sapiens, UniProt P30419); conditions: reported in literature; cited from earlier work
# T1 sequence (P30419 1-496): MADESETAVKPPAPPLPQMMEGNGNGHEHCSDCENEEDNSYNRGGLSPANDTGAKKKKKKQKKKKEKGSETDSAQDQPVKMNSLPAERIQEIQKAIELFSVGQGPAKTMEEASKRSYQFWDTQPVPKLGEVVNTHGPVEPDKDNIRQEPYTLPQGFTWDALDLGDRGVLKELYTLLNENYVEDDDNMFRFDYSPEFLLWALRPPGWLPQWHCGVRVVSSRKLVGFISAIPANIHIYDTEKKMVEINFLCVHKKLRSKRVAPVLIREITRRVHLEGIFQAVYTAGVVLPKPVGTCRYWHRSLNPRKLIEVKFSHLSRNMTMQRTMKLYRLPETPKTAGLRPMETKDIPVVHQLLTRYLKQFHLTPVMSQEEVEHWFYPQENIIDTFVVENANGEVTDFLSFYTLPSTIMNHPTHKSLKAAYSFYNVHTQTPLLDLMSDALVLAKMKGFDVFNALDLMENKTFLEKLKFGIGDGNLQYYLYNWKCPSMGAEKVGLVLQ
# [4] = at 25° C.; cited from earlier work
compound,measurement,setting,value
Tris (dibenzylideneacetone) dipalladium [Tris DBA-Pd],inhibition of LM36R tumor growth (tumor volume),[1],showed efficacy
same,"efficacy against melanoma in vitro and preclinical models of pancreatic cancer, chronic lymphocytic leukemia, multiple myeloma",melanoma,efficacious
same,solubility (general statement),[2],Water-insoluble
same,solubility (general statement),[2]; listed as Tris (dibenzylideneacetone) dipalladium,poor solubility
same,"behaviour in water, FBS, and cell culture media","[2]; water, FBS, cell culture media",immediately precipitated
same,SCG2 (secretogranin 2) gene expression,LM36R xenograft tumor,downregulated
same,activity against the enzyme N-myristoyltransferase 1,[3],activity
CCCCCCCC [octane],percent solubility in water by weight,[4],0.63×10^−4 % w/w
